Reference: article PMC7313537 (PLoS ONE, 2020)

Legend:
AURKA = AURKA (Homo sapiens, UniProt O14965); assay: Enzyme selectivity panel; assay type: biochemical; conditions: 1 mM ATP
Method: (§3) The kinase assays were carried out at room temperature in HEPES 50 mM, pH 7.0, NaN3 0.02%, BSA 0.01%, Orthovanadate 0.1 mM, DTT 1 mM, MgCl2 10 mM in a final volume of 10 µL. Test compounds were transferred to the plate wells by ECHO liquid handler (Labcyte, San Jose, CA) with 0.5% dimethyl sulfoxide (DMSO) in the final assay. Peptide/kinase mixtures were diluted in the appropriate enzymatic buffer and 5µL of the mixture was added to a 384-well small volume black plate. Reactions were initiated by the addition of 5 µL ATP in reaction buffer, the final reaction mixture consisted of 500 nM peptide substrate, 1 mM ATP, and appropriate amount of specific kinase. […] The plates were then sealed and centrifuged at 1800 rpm for 2 minutes. […] Half maximal inhibitory concentration (IC50) determination was performed by fitting the curve of percent control activity versus the log of the compound concentration using the GraphPad Prism 6.0 software.

IGF1R = IGF1R (Homo sapiens, UniProt P08069); assay: Enzyme selectivity panel; assay type: biochemical; conditions: 1 mM ATP
Method: as §3

JNK1 = JNK1 (Homo sapiens, UniProt P45983); assay: Enzyme selectivity panel; assay type: biochemical; conditions: 1 mM ATP
Method: as §3

AKT2 = target: T1, AKT2 (Homo sapiens, UniProt P31751); assay: Broader kinase panel (PerkinElmer); assay type: biochemical; conditions: 100 nM; read-out: Average Percent Inhibition
T1 construct: purchased In-house HTRF panel (56 kinases) and PerkinElmer (161-kinase panel)
Text: (§1) […]. […] […].

AXL = target: T2, AXL (Homo sapiens, UniProt P30530); assay: Broader kinase panel (PerkinElmer); assay type: biochemical; conditions: 100 nM; read-out: Average Percent Inhibition
T2 construct: purchased In-house HTRF panel (56 kinases) and PerkinElmer (161-kinase panel)
Text: as §1

Arg = target: T3, Arg (Homo sapiens, UniProt P42684); assay: Broader kinase panel (PerkinElmer); assay type: biochemical; conditions: 100 nM; read-out: Average Percent Inhibition
T3 construct: purchased In-house HTRF panel (56 kinases) and PerkinElmer (161-kinase panel)
T3 sequence (P42684 whole entry): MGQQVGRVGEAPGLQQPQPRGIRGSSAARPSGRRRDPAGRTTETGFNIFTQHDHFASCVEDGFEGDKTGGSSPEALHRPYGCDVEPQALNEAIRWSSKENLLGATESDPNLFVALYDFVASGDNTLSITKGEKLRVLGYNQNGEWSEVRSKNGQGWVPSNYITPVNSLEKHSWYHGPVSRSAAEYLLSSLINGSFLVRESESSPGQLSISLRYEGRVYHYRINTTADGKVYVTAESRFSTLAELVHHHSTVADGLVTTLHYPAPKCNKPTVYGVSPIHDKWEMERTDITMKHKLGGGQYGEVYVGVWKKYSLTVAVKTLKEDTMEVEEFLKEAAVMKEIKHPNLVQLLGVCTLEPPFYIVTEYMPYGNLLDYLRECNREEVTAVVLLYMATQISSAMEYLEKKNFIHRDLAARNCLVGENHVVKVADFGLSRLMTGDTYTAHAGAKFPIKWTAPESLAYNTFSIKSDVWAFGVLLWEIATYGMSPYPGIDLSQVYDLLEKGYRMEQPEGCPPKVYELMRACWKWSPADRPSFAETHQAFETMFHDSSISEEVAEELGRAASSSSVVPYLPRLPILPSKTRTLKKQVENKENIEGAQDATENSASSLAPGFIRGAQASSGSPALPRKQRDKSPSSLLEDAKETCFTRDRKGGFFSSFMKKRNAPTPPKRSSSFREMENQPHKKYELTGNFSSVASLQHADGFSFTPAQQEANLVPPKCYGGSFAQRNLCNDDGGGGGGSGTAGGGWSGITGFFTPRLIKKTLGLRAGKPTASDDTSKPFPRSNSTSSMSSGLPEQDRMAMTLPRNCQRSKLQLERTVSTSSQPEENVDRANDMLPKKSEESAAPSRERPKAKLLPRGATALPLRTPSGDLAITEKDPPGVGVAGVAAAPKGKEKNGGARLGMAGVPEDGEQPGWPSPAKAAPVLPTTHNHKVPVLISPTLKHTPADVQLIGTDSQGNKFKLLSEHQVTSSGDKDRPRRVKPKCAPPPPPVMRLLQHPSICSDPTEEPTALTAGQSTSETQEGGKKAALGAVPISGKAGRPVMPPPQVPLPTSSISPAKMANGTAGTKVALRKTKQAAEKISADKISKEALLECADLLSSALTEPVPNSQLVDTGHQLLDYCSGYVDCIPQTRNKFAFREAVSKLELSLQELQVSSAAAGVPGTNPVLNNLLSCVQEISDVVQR
Text: as §1

CHK2 = target: T4, CHK2 (Homo sapiens, UniProt O96017); assay: Broader kinase panel (PerkinElmer); assay type: biochemical; conditions: 100 nM; read-out: Average Percent Inhibition
T4 construct: purchased In-house HTRF panel (56 kinases) and PerkinElmer (161-kinase panel)
Text: as §1

DCAMKL2 = target: T5, DCAMKL2 (Homo sapiens, UniProt Q8N568); assay: Broader kinase panel (PerkinElmer); assay type: biochemical; conditions: 100 nM; read-out: Average Percent Inhibition
T5 construct: purchased In-house HTRF panel (56 kinases) and PerkinElmer (161-kinase panel)
Text: as §1

DYRK1B = target: T6, DYRK1B (Homo sapiens, UniProt Q9Y463); assay: Broader kinase panel (PerkinElmer); assay type: biochemical; conditions: 100 nM; read-out: Average Percent Inhibition
T6 construct: purchased In-house HTRF panel (56 kinases) and PerkinElmer (161-kinase panel)
Text: as §1

DYRK1a = target: T7, DYRK1a (Homo sapiens, UniProt Q13627); assay: Broader kinase panel (PerkinElmer); assay type: biochemical; conditions: 100 nM; read-out: Average Percent Inhibition
T7 construct: purchased In-house HTRF panel (56 kinases) and PerkinElmer (161-kinase panel)
Text: as §1

EGFR = EGFR (Homo sapiens, UniProt P00533); assay: Broader kinase panel (PerkinElmer); assay type: biochemical; conditions: 100 nM; read-out: Average Percent Inhibition
Sequence of EGFR (P00533 25-1210, species assumed): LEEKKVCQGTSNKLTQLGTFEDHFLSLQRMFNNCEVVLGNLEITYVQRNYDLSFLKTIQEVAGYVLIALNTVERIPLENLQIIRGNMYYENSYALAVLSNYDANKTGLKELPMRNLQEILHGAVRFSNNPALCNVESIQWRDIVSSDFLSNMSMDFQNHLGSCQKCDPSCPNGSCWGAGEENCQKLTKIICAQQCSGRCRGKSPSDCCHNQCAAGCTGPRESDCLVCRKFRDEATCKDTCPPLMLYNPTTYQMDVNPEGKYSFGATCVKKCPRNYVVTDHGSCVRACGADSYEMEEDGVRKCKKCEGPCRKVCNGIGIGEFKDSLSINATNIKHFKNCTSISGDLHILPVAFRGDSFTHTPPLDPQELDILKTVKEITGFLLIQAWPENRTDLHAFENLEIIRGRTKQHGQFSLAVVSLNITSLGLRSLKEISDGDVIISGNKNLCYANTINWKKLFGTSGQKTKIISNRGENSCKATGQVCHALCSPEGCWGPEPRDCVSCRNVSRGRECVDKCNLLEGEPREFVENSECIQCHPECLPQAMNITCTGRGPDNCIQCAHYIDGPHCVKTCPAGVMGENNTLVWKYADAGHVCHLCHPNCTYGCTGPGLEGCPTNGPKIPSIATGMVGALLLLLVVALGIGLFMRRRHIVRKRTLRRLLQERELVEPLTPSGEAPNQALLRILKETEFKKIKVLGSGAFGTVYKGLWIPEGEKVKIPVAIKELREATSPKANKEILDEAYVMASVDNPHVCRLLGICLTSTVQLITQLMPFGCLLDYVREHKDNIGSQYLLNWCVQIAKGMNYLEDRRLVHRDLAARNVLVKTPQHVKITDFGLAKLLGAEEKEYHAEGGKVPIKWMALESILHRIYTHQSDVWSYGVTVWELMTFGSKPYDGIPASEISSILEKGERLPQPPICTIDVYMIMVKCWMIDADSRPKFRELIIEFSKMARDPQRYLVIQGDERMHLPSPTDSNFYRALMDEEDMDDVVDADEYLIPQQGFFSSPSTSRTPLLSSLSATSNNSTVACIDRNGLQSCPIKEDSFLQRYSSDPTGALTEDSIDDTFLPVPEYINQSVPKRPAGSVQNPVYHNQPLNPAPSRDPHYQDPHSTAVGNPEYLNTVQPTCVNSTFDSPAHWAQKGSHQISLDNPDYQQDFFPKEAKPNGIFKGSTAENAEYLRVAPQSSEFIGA
Text: as §1

EGFR(T790M) = target: T8, EGFR(T790M) (Homo sapiens, UniProt P00533, T790M); assay: Broader kinase panel (PerkinElmer); assay type: biochemical; conditions: 100 nM; read-out: Average Percent Inhibition
T8 construct: purchased In-house HTRF panel (56 kinases) and PerkinElmer (161-kinase panel)
Text: as §1

EPHA4 = target: T9, EPHA4 (Homo sapiens, UniProt P54764); assay: Broader kinase panel (PerkinElmer); assay type: biochemical; conditions: 100 nM; read-out: Average Percent Inhibition
T9 construct: purchased In-house HTRF panel (56 kinases) and PerkinElmer (161-kinase panel)
Text: as §1

Erk2 = target: T10, Erk2 (Homo sapiens, UniProt P28482); assay: Broader kinase panel (PerkinElmer); assay type: biochemical; conditions: 100 nM; read-out: Average Percent Inhibition
T10 construct: purchased In-house HTRF panel (56 kinases) and PerkinElmer (161-kinase panel)
Text: as §1

FLT1 = target: T11, FLT1 (Homo sapiens, UniProt P17948); assay: Broader kinase panel (PerkinElmer); assay type: biochemical; conditions: 100 nM; read-out: Average Percent Inhibition
T11 construct: purchased In-house HTRF panel (56 kinases) and PerkinElmer (161-kinase panel)
Text: as §1

FLT3 = FLT3 (Homo sapiens, UniProt P36888); assay: Broader kinase panel (PerkinElmer); assay type: biochemical; conditions: 100 nM; read-out: Average Percent Inhibition
Sequence of FLT3 (P36888 27-993, species assumed): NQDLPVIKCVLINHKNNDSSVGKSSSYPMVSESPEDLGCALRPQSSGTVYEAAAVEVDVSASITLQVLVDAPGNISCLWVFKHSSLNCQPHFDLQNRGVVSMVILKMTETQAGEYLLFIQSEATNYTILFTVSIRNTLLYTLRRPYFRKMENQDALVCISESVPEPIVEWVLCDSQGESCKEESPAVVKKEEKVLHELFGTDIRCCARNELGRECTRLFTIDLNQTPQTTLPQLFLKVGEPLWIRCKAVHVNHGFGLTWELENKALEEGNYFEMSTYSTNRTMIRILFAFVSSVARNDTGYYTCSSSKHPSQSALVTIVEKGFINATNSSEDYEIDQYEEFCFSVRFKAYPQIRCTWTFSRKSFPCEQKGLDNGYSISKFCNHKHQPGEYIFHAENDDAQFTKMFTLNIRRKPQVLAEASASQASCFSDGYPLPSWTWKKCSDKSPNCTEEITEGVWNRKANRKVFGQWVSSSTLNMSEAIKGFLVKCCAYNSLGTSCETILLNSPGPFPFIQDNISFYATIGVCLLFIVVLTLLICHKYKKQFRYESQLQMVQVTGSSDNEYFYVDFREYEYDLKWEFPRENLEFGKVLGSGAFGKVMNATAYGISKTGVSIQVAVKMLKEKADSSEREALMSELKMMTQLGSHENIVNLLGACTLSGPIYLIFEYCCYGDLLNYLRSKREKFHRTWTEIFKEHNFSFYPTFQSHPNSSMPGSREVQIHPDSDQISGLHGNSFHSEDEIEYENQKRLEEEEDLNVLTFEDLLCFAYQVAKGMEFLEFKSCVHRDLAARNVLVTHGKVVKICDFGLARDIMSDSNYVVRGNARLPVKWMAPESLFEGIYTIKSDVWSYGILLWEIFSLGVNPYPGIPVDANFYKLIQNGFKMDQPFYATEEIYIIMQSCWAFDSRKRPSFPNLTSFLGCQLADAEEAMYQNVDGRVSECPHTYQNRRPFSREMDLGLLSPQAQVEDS
Text: as §1

FYN = target: T12, FYN (Homo sapiens, UniProt P06241); assay: Broader kinase panel (PerkinElmer); assay type: biochemical; conditions: 100 nM; read-out: Average Percent Inhibition
T12 construct: purchased In-house HTRF panel (56 kinases) and PerkinElmer (161-kinase panel)
Text: as §1

GSK3B = target: T13, GSK3B (Homo sapiens, UniProt P49841); assay: Broader kinase panel (PerkinElmer); assay type: biochemical; conditions: 100 nM; read-out: Average Percent Inhibition
T13 construct: purchased In-house HTRF panel (56 kinases) and PerkinElmer (161-kinase panel)
Text: as §1

HER4 = target: T14, HER4 (Homo sapiens, UniProt Q15303); assay: Broader kinase panel (PerkinElmer); assay type: biochemical; conditions: 100 nM; read-out: Average Percent Inhibition
T14 construct: purchased In-house HTRF panel (56 kinases) and PerkinElmer (161-kinase panel)
Text: as §1

Hck = target: T15, Hck (Homo sapiens, UniProt P08631); assay: Broader kinase panel (PerkinElmer); assay type: biochemical; conditions: 100 nM; read-out: Average Percent Inhibition
T15 construct: purchased In-house HTRF panel (56 kinases) and PerkinElmer (161-kinase panel)
Text: as §1

IKK-beta = target: T16, IKK-beta (Homo sapiens, UniProt O14920); assay: Broader kinase panel (PerkinElmer); assay type: biochemical; conditions: 100 nM; read-out: Average Percent Inhibition
T16 construct: purchased In-house HTRF panel (56 kinases) and PerkinElmer (161-kinase panel)
Text: as §1

INSR = target: T17, INSR (Homo sapiens, UniProt P06213); assay: Broader kinase panel (PerkinElmer); assay type: biochemical; conditions: 100 nM; read-out: Average Percent Inhibition
T17 construct: purchased In-house HTRF panel (56 kinases) and PerkinElmer (161-kinase panel)
Text: as §1

MAPKAPK2 = MAPKAPK2 (Homo sapiens, UniProt P49137); assay: Broader kinase panel (PerkinElmer); assay type: biochemical; conditions: 100 nM; read-out: Average Percent Inhibition
Text: as §1

MELK = target: T18, MELK (Homo sapiens, UniProt Q14680); assay: Broader kinase panel (PerkinElmer); assay type: biochemical; conditions: 100 nM; read-out: Average Percent Inhibition
T18 construct: purchased In-house HTRF panel (56 kinases) and PerkinElmer (161-kinase panel)
Text: as §1

MET M1250T = target: T19, MET M1250T (Homo sapiens, UniProt P08581, M1250T); assay: Broader kinase panel (PerkinElmer); assay type: biochemical; conditions: 100 nM; read-out: Average Percent Inhibition
T19 construct: purchased In-house HTRF panel (56 kinases) and PerkinElmer (161-kinase panel)
Text: as §1

MNK1 (MKNK1) = target: T20, MNK1 (MKNK1) (Homo sapiens, UniProt Q9BUB5); assay: Broader kinase panel (PerkinElmer); assay type: biochemical; conditions: 100 nM; read-out: Average Percent Inhibition
T20 construct: purchased In-house HTRF panel (56 kinases) and PerkinElmer (161-kinase panel)
Text: as §1

MSK2 = target: T21, MSK2 (Homo sapiens, UniProt O75676); assay: Broader kinase panel (PerkinElmer); assay type: biochemical; conditions: 100 nM; read-out: Average Percent Inhibition
T21 construct: purchased In-house HTRF panel (56 kinases) and PerkinElmer (161-kinase panel)
Text: as §1

PDGFR-alpha (V561D) = target: T22, PDGFR-alpha (V561D) (Homo sapiens, UniProt P16234, V561D); assay: Broader kinase panel (PerkinElmer); assay type: biochemical; conditions: 100 nM; read-out: Average Percent Inhibition
T22 construct: purchased In-house HTRF panel (56 kinases) and PerkinElmer (161-kinase panel)
Text: as §1

PKC-theta = target: T23, PKC-theta (Homo sapiens, UniProt Q04759); assay: Broader kinase panel (PerkinElmer); assay type: biochemical; conditions: 100 nM; read-out: Average Percent Inhibition
T23 construct: purchased In-house HTRF panel (56 kinases) and PerkinElmer (161-kinase panel)
T23 sequence (Q04759 whole entry): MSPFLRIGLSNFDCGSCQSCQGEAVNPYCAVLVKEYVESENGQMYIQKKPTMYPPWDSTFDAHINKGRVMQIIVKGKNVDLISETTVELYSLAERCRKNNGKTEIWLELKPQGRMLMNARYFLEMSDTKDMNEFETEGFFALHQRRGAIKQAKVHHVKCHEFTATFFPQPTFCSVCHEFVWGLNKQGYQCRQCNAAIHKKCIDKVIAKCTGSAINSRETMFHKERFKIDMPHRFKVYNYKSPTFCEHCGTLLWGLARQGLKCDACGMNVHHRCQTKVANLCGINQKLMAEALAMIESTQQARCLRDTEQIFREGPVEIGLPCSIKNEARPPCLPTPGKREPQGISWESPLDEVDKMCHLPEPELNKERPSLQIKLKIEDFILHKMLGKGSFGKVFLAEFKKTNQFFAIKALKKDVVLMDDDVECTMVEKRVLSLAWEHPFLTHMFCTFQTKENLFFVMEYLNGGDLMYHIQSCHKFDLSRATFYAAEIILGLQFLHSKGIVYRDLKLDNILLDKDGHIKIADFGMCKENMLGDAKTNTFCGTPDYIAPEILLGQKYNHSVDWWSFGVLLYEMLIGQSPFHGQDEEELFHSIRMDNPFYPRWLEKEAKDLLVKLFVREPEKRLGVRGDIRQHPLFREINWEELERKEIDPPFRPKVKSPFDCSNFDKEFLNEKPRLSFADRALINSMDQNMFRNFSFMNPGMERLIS
Text: as §1

PKGa = target: T24, PKGa (Homo sapiens, UniProt Q13976); assay: Broader kinase panel (PerkinElmer); assay type: biochemical; conditions: 100 nM; read-out: Average Percent Inhibition
T24 construct: purchased In-house HTRF panel (56 kinases) and PerkinElmer (161-kinase panel)
Text: as §1

PRAK = target: T25, PRAK (Homo sapiens, UniProt Q8IW41); assay: Broader kinase panel (PerkinElmer); assay type: biochemical; conditions: 100 nM; read-out: Average Percent Inhibition
T25 construct: purchased In-house HTRF panel (56 kinases) and PerkinElmer (161-kinase panel)
Text: as §1

ROCK2 = target: T26, ROCK2 (Homo sapiens, UniProt O75116); assay: Broader kinase panel (PerkinElmer); assay type: biochemical; conditions: 100 nM; read-out: Average Percent Inhibition
T26 construct: purchased In-house HTRF panel (56 kinases) and PerkinElmer (161-kinase panel)
Text: as §1

RSK1 = target: T27, RSK1 (Homo sapiens, UniProt Q15418); assay: Broader kinase panel (PerkinElmer); assay type: biochemical; conditions: 100 nM; read-out: Average Percent Inhibition
T27 construct: purchased In-house HTRF panel (56 kinases) and PerkinElmer (161-kinase panel)
Text: as §1

c-Raf = target: T28, c-Raf (Homo sapiens, UniProt P04049); assay: Broader kinase panel (PerkinElmer); assay type: biochemical; conditions: 100 nM; read-out: Average Percent Inhibition
T28 construct: purchased In-house HTRF panel (56 kinases) and PerkinElmer (161-kinase panel)
Text: as §1

CYP1A2 = target: T29, CYP1A2 (Homo sapiens, UniProt P05177); assay: CYP inhibition; assay type: in vitro ADME; conditions: human liver microsomes
T29 construct: from tissue; host or cells: human liver microsomes
Method: (§2) In addition, the known selective inhibitors of CYP1A2 (α-naphthoflavone), CYP2B6 (ticlopidine), CYP2C8 (quercetin), CYP2C9 (sulfaphenazole), CYP2C19 (tranylcypromine), CYP2D6 (quinidine), and CYP3A4 (ketoconazole) were included as positive controls. […] Samples were vortexed and centrifuged, and the resulting supernatants were analyzed using LC-MS/MS.

CYP2B6 = target: T30, CYP2B6 (Homo sapiens, UniProt P20813); assay: CYP inhibition; assay type: in vitro ADME; conditions: human liver microsomes
T30 construct: from tissue; host or cells: human liver microsomes
Method: as §2

CYP2C19 = target: T31, CYP2C19 (Homo sapiens, UniProt P33261); assay: CYP inhibition; assay type: in vitro ADME; conditions: human liver microsomes
T31 construct: from tissue; host or cells: human liver microsomes
Method: as §2

CYP2C9 = target: T32, CYP2C9 (Homo sapiens, UniProt P11712); assay: CYP inhibition; assay type: in vitro ADME; conditions: human liver microsomes
T32 construct: from tissue; host or cells: human liver microsomes
Method: as §2

CYP2D6 = target: T33, CYP2D6 (Homo sapiens, UniProt P10635); assay: CYP inhibition; assay type: in vitro ADME; conditions: human liver microsomes
T33 construct: from tissue; host or cells: human liver microsomes
Method: as §2

CYP3A4 = target: T34, CYP3A4 (Homo sapiens, UniProt P08684); assay: CYP inhibition; assay type: in vitro ADME; conditions: human liver microsomes
T34 construct: from tissue; host or cells: human liver microsomes
T34 sequence (P08684 whole entry): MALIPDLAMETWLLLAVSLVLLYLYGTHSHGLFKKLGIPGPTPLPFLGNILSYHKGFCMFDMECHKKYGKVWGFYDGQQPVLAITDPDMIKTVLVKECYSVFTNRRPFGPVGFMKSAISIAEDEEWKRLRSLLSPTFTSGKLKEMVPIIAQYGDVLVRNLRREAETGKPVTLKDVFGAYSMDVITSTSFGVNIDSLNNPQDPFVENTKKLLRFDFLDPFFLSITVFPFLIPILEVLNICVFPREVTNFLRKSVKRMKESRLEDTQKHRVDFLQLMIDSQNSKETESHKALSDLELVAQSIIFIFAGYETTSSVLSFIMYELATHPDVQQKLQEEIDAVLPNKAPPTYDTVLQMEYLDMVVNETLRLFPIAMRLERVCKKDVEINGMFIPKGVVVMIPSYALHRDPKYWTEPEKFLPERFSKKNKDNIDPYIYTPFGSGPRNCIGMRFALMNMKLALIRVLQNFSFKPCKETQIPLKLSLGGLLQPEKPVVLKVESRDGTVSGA
Method: as §2

Sequence of AURKA (O14965 whole entry, species assumed): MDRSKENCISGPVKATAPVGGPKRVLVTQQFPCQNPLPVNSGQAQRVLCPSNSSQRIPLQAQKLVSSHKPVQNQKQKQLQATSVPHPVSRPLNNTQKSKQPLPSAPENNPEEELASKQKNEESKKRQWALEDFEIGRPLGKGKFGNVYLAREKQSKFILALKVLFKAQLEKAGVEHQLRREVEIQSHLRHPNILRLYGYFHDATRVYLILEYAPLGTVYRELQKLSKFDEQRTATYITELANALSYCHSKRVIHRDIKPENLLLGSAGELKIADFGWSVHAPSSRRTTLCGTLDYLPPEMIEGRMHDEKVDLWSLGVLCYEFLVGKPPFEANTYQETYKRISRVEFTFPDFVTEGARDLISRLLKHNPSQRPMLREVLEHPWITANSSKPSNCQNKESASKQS

Question: For `CCN1C(=O)N(c2c(F)c(OC)cc(OC)c2F)Cc2cnc3[nH]c(CN4CCOCC4)cc3c21` [INCB054828, pemigatinib], which IC50 (AURKA) is on record?
Answer: > 10 µM

Question: And the IC50 (IGF1R)?
Answer: > 10 µM

Question: What about the IC50 (JNK1) of the same molecule?
Answer: > 10 µM

Question: And the inhibition at 0.1 µM (AKT2)?
Answer: 2%

Question: What about the inhibition at 0.1 µM (AXL) of the same molecule?
Answer: -8%

Question: What about the inhibition at 0.1 µM (Arg) of the same molecule?
Answer: -4%

Question: What about the inhibition at 0.1 µM (CHK2) of the same molecule?
Answer: 4%

Question: And the inhibition at 0.1 µM (DCAMKL2)?
Answer: 3%

Question: What about the inhibition at 0.1 µM (DYRK1B) of the same molecule?
Answer: 7%

Question: What about the inhibition at 0.1 µM (DYRK1a) of the same molecule?
Answer: -2%

Question: And the inhibition at 0.1 µM (EGFR)?
Answer: 23%

Question: What about the inhibition at 0.1 µM (EGFR(T790M)) of the same molecule?
Answer: -1%

Question: And the inhibition at 0.1 µM (EPHA4)?
Answer: 3%

Question: What about the inhibition at 0.1 µM (Erk2) of the same molecule?
Answer: 3%

Question: And the inhibition at 0.1 µM (FLT1)?
Answer: 13%

Question: And the inhibition at 0.1 µM (FLT3)?
Answer: 0%

Question: What about the inhibition at 0.1 µM (FYN) of the same molecule?
Answer: -1%

Question: What about the inhibition at 0.1 µM (GSK3B) of the same molecule?
Answer: -1%

Question: What about the inhibition at 0.1 µM (HER4) of the same molecule?
Answer: -15%

Question: And the inhibition at 0.1 µM (Hck)?
Answer: -3%

Question: And the inhibition at 0.1 µM (IKK-beta)?
Answer: 4%

Question: What about the inhibition at 0.1 µM (INSR) of the same molecule?
Answer: 1%

Question: What about the inhibition at 0.1 µM (MAPKAPK2) of the same molecule?
Answer: 0%

Question: And the inhibition at 0.1 µM (MELK)?
Answer: 2%

Question: And the inhibition at 0.1 µM (MET M1250T)?
Answer: 1%

Question: What about the inhibition at 0.1 µM (MNK1 (MKNK1)) of the same molecule?
Answer: 6%

Question: And the inhibition at 0.1 µM (MSK2)?
Answer: -7%

Question: What about the inhibition at 0.1 µM (PDGFR-alpha (V561D)) of the same molecule?
Answer: 1%

Question: And the inhibition at 0.1 µM (PKC-theta)?
Answer: 2%

Question: What about the inhibition at 0.1 µM (PKGa) of the same molecule?
Answer: 1%

Question: And the inhibition at 0.1 µM (PRAK)?
Answer: -2%

Question: What about the inhibition at 0.1 µM (ROCK2) of the same molecule?
Answer: 5%

Question: What about the inhibition at 0.1 µM (RSK1) of the same molecule?
Answer: -2%

Question: What about the inhibition at 0.1 µM (c-Raf) of the same molecule?
Answer: 3%

Question: And the IC50 (CYP1A2)?
Answer: > 25 µM

Question: What about the IC50 (CYP2B6) of the same molecule?
Answer: > 25 µM

Question: What about the IC50 (CYP2C19) of the same molecule?
Answer: > 25 µM

Question: And the IC50 (CYP2C9)?
Answer: > 25 µM

Question: What about the IC50 (CYP2D6) of the same molecule?
Answer: > 25 µM

Question: What about the IC50 (CYP3A4) of the same molecule?
Answer: > 25 µM
